# Experimental data reported in patent US20200172483A1, “HETEROCYCLIC SMALL MOLECULE MODULATORS OF HUMAN STING” (Curadev Pharma Limited, priority 2017, published 2020).
# pEC50: −log10 of the molar value. Where two headings read alike, the source gives them in different places.
# How the values were obtained:
# hSTING (H232) = target: T1, hSTING (H232) (Homo sapiens, UniProt Q86WV6); assay: Luciferase reporter assay in HEK293T-hSTING-Luciferase cells (H232/REF polymorph); type: cell-based; details: EC50 range
# T1 construct: host or cells: HEK293T
# Procedure, shortened: (§1)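 Clonal HEK293T lines stably expressing the hSTING variant (H232 or HAQ) plus an ISRE/ISG54-driven secreted luciferase reporter were stimulated with compounds for 20 hr. Supernatant luciferase measured by luminescence (Quanti-Luc).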
# IRF pathway = assay: Reporter gene expression assay for IRF axis in THP1-Dual cells (secreted Lucia luciferase); type: cell-based, human; details: 20 hr stimulation, QUANTI-Luc, EC50 range, read-out: THP-IRF activity
# Procedure, shortened: (§2)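 THP1-Dual cells (THP-1 monocytes with inducible NF-κB-SEAP and IRF-Lucia reporters; 5×10^5 cells) were stimulated with compounds for 20 hr. Secreted SEAP (QUANTI-Blue) and Lucia luciferase (QUANTI-Luc) were then measured in the supernatant. EC50 values are reported as ranges.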
# NF-κB pathway = assay: Reporter gene expression assay for NFκB axis in THP1-Dual cells (secreted SEAP); type: cell-based, human; details: 20 hr stimulation, QUANTI-Blue SEAP, EC50 range, read-out: THP-NFKB activity
# Procedure, shortened: as §2
# hSTING (HAQ) = target: T2, hSTING (HAQ) (Homo sapiens, UniProt Q86WV6, G230A/H232R/R293Q/R71H); assay: Luciferase reporter assay in HEK293T-hSTING-Luciferase cells (HAQ polymorph); type: cell-based; details: EC50 range
# T2 construct: host or cells: HEK293T
# Procedure, shortened: as §1
# WT/R232 STING protein = target: T3, WT/R232 STING protein (Homo sapiens, UniProt Q86WV6, H232R); assay: Luciferase reporter assay in HEK293T-hSTING-Luciferase cells (R232); type: cell-based; details: 20 hr stimulation, EC50 range
# T3 construct: host or cells: HEK293T
# Procedure, shortened: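 Readout is fold-induction over baseline of secreted luciferase, measured by luminescence after 20 hr compound stimulation. Cells: clonally selected HEK293T stably carrying hSTING (R232) and a luciferase reporter under five tandem ISREs fused to an ISG54 minimal promoter.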
# T2 sequence (Q86WV6 whole entry R71H/G230A/H232R/R293Q): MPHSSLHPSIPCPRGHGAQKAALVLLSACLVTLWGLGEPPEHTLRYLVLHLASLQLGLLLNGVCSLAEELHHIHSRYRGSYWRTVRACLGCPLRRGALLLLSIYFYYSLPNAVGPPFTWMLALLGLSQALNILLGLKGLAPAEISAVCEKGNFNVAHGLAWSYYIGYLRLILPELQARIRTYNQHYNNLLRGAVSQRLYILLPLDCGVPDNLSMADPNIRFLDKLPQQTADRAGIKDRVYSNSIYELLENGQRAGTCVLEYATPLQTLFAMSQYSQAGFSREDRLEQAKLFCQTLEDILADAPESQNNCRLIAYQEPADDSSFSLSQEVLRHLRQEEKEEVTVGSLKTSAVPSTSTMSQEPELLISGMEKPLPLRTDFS
# T3 sequence (Q86WV6 whole entry H232R): as the sequence (Q86WV6 whole entry R71H/G230A/H232R/R293Q) above, with H71R, A230G, Q293R counted along it
# T1 sequence (Q86WV6 whole entry): as the sequence (Q86WV6 whole entry R71H/G230A/H232R/R293Q) above, with H71R, A230G, R232H, Q293R counted along it
SMILES,pEC50 (hSTING (H232)),"pEC50 (IRF pathway; Homo sapiens, THP1-Dual, 20 h)","pEC50 (NF-κB pathway; Homo sapiens, THP1-Dual, 20 h)",pEC50 (hSTING (HAQ)),pEC50 (WT/R232 STING protein),pEC50 (NF-κB pathway),pEC50 (IRF pathway)
"CC1(C)C(=O)N(Cc2c(F)cccc2F)c2cc(C(=O)NCc3c(F)cc(F)cc3F)ccc21 [Example 109, 1-(2,6-difluorobenzyl)-3,3-dimethyl-2-oxo-N-(2,4,6-trifluorobenzyl)indoline-6-carboxamide]",≥ 6.00,5.00 to 6.00,5.00 to 6.00,≥ 6.00,≥ 6.00,,
"CC1(C)C(=O)N(Cc2c(F)cccc2OC(F)F)c2cc(C(=O)NCc3c(F)cc(F)cc3F)ccc21 [Example 111, 1-(2-(difluoromethoxy)-6-fluorobenzyl)-3,3-dimethyl-2-oxo-N-(2,4,6-trifluorobenzyl)indoline-6-carboxamide]",≥ 6.00,5.00 to 6.00,5.00 to 6.00,≥ 6.00,≥ 6.00,,
"Cc1nn(C)c(CN2C(=O)C(C)(C)c3ccc(C(=O)NCc4cc5ccccc5o4)cc32)c1Br [Example 112, N-(benzofuran-2-ylmethyl)-1-((4-bromo-1,3-dimethyl-1H-pyrazol-5-yl)methyl)-3,3-dimethyl-2-oxoindoline-6-carboxamide]",≥ 6.00,5.00 to 6.00,5.00 to 6.00,≥ 6.00,≥ 6.00,,
"Cc1nn(C)c(CN2C(=O)C(C)(C)c3ccc(C(=O)NCc4cc5cc(F)c(F)cc5o4)cc32)c1F [Example 114, N-((5,6-difluorobenzofuran-2-yl)methyl)-1-((4-fluoro-1,3-dimethyl-1H-pyrazol-5-yl)methyl)-3,3-dimethyl-2-oxoindoline-6-carboxamide]",≥ 6.00,5.00 to 6.00,5.00 to 6.00,≥ 6.00,≥ 6.00,,
"Cc1nn(C)c(CN2C(=O)C(C)(C)c3ccc(C(=O)NCc4cc5cc(F)ccc5o4)cc32)c1F [Example 115, 1-((4-fluoro-1,3-dimethyl-1H-pyrazol-5-yl)methyl)-N-((5-fluorobenzofuran-2-yl)methyl)-3,3-dimethyl-2-oxoindoline-6-carboxamide]",≥ 6.00,5.00 to 6.00,5.00 to 6.00,≥ 6.00,≥ 6.00,,
"CCn1nc(C)cc1CN1C(=O)C(C)(C)c2ccc(C(=O)NCc3cc4cc(F)ccc4o3)cc21 [Example 116, 1-((1-ethyl-3-methyl-1H-pyrazol-5-yl)methyl)-N-((5-fluorobenzofuran-2-yl)methyl)-3,3-dimethyl-2-oxoindoline-6-carboxamide]",≥ 6.00,5.00 to 6.00,5.00 to 6.00,≥ 6.00,≥ 6.00,,
"CCn1nc(C)cc1CN1C(=O)C(C)(C)c2ccc(C(=O)NCc3c(F)cc(F)cc3F)cc21 [Example 117, 1-((1-ethyl-3-methyl-1H-pyrazol-5-yl)methyl)-3,3-dimethyl-2-oxo-N-(2,4,6-trifluorobenzyl)indoline-6-carboxamide]",5.00 to 6.00,5.00 to 6.00,5.00 to 6.00,5.00 to 6.00,≥ 6.00,,
"COCCn1nc(C)c(F)c1CN1C(=O)C(C)(C)c2ccc(C(=O)NCc3cc4cc(F)ccc4o3)cc21 [Example 118, 1-((4-fluoro-1-(2-methoxyethyl)-3-methyl-1H-pyrazol-5-yl)methyl)-N-((5-fluorobenzofuran-2-yl)methyl)-3,3-dimethyl-2-oxoindoline-6-carboxamide]",5.00 to 6.00,< 5.00,< 5.00,5.00 to 6.00,≥ 6.00,,
"Cc1nn(CCO)c(CN2C(=O)C(C)(C)c3ccc(C(=O)NCc4cc5cc(F)ccc5o4)cc32)c1F [Example 119, 1-((4-fluoro-1-(2-hydroxyethyl)-3-methyl-1H-pyrazol-5-yl)methyl)-N-((5-fluorobenzofuran-2-yl)methyl)-3,3-dimethyl-2-oxoindoline-6-carboxamide]",5.00 to 6.00,5.00 to 6.00,5.00 to 6.00,5.00 to 6.00,≥ 6.00,,
"CC1(C)C(=O)N(Cc2ccccc2C#N)c2cc(C(=O)NCc3c(F)cc(F)cc3F)ccc21 [Example 124, 1-(2-cyanobenzyl)-3,3-dimethyl-2-oxo-N-(2,4,6-trifluorobenzyl)indoline-6-carboxamide]",5.00 to 6.00,< 5.00,< 5.00,5.00 to 6.00,≥ 6.00,,
"CC1(C)CN(C(=O)Cc2ccccc2)c2cc(C(=O)NCc3c(F)cc(F)cc3F)ccc21 [Example 136, 3,3-dimethyl-1-(2-phenylacetyl)-N-(2,4,6-trifluorobenzyl)indoline-6-carboxamide]",< 5.00,< 5.00,< 5.00,5.00 to 6.00,5.00 to 6.00,,
"O=C(NCc1c(F)cc(F)cc1F)c1ccc2c(c1)N(Cc1cc(F)cc(F)c1)C(=O)C21CCCC1 [Example 137, 1′(3,5-difluorobenzyl)-2′-oxo-N-(2,4,6-trifluorobenzyl)spiro[cyclopentane-1,3′-indoline]-6′-carboxamide]",5.00 to 6.00,< 5.00,< 5.00,5.00 to 6.00,5.00 to 6.00,,
"CC1(Cl)C(=O)N(Cc2cc(F)cc(F)c2)c2cc(C(=O)NCc3c(F)cc(F)cc3F)ccc21 (centres unmarked) [Example 144, 3-Chloro-1-(3,5-difluorobenzyl)-3-methyl-2-oxo-N-(2,4,6 trifluorobenzyl) indoline-6-carboxamide]",5.00 to 6.00,< 5.00,,5.00 to 6.00,≥ 6.00,5.00 to 6.00,
"CC1(Cl)C(=O)N(Cc2c(F)cccc2Cl)c2cc(C(=O)NCc3c(F)cc(F)cc3F)ccc21 (centres unmarked) [Example 146, 3-chloro-1(2-chloro-6-fluorobenzyl)-3-methyl-2-oxo-N-(2,4,6-trifluorobenzyl)indoline-6-carboxamide]",5.00 to 6.00,< 5.00,5.00 to 6.00,5.00 to 6.00,≥ 6.00,,
"CC1(Cl)C(=O)N(Cc2cc(F)cc(F)c2)c2cc(C(=O)NCc3c(F)cc(F)cc3F)ccc21 (centres unmarked) [Example 147, 3-chloro-1-(3,5-difluorobenzyl)-3-methyl-2-oxo-N-(2,4,6-trifluorobenzyl)indoline-6-carboxamide]",< 5.00,,,< 5.00,≥ 6.00,< 5.00,< 5.00
CC1(Cl)C(=O)N(Cc2cc(F)cc(F)c2)c2cc(C(=O)NCc3c(F)cc(F)cc3F)ccc21 (centres unmarked) [Example 148],5.00 to 6.00,,,5.00 to 6.00,5.00 to 6.00,< 5.00,< 5.00
"CC1(N=[N+]=[N-])C(=O)N(Cc2c(F)cccc2Cl)c2cc(C(=O)NCc3c(F)cc(F)cc3F)ccc21 (centres unmarked) [Example 153, 3-azido-1(2-chloro-6-fluorobenzyl)-3-methyl-2-oxo-N-(2,4,6-trifluorobenzyl)indoline-6-carboxamide]",5.00 to 6.00,< 5.00,5.00 to 6.00,5.00 to 6.00,≥ 6.00,,
"CCC1(Cl)C(=O)N(Cc2c(F)cccc2Cl)c2cc(C(=O)NCc3c(F)cc(F)cc3F)ccc21 (centres unmarked) [Example 155, 3-chloro-1-(2-chloro-6-fluorobenzyl)-3-ethyl-2-oxo-N-(2,4,6-trifluorobenzyl)indoline-6-carboxamide]",< 5.00,< 5.00,< 5.00,< 5.00,≥ 6.00,,
"CC(C)C1(Cl)C(=O)N(Cc2c(F)cccc2Cl)c2cc(C(=O)NCc3c(F)cc(F)cc3F)ccc21 (centres unmarked) [Example 157, 3-chloro-1-(2-chloro-6-fluorobenzyl)-3-isopropyl-2-oxo-N-(2,4,6-trifluorobenzyl)indoline-6-carboxamide]",5.00 to 6.00,< 5.00,< 5.00,5.00 to 6.00,≥ 6.00,,
"CCC1(OC)C(=O)N(Cc2c(F)cccc2Cl)c2cc(C(=O)NCc3c(F)cc(F)cc3F)ccc21 (centres unmarked) [Example 161, 1-(2-chloro-6-fluorobenzyl)-3-ethyl-3-methoxy-2-oxo-N-(2,4,6-trifluorobenzyl)indoline-6-carboxamide]",5.00 to 6.00,< 5.00,< 5.00,5.00 to 6.00,5.00 to 6.00,,
"CC1(C#N)C(=O)N(Cc2c(F)cccc2Cl)c2cc(C(=O)NCc3c(F)cc(F)cc3F)ccc21 (centres unmarked) [Example 164, 1-(2-chloro-6-fluorobenzyl)-3-cyano-3-methyl-2-oxo-N-(2,4,6-trifluorobenzyl)indoline-6-carboxamide]",≥ 6.00,< 5.00,,5.00 to 6.00,≥ 6.00,< 5.00,
"CC1(C#N)C(=O)N(Cc2c(F)cccc2Cl)c2cc(C(=O)NCc3c(F)cc(F)cc3F)ccc21 (centres unmarked) [Example 165, 1-(2-chloro-6-fluorobenzyl)-3-cyano-3-methyl-2-oxo-N-(2,4,6-trifluorobenzyl)indoline-6-carboxamide]",≥ 6.00,,,≥ 6.00,≥ 6.00,5.00 to 6.00,< 5.00
